Measured values as given in patent US9023851B2 (Merck Patent GmbH, priority 2010, dated 2015).

How the values were obtained:
Type in all cases: biochemical
Src = target: T1, Src (Homo sapiens, UniProt P12931); assay: cSrc enzymatic assay (Caliper LifeSciences technology)
T1 construct: purchased Carna Bioscience, Kobe, Japan
Description: (§1) Enzymatic Assays Using the Caliper LifeSciences Technology
(§2) The assays described here are performed on the Caliper Life Sciences LC3000 system This technology provides data on enzyme activity via measurement of the relative amounts of phosphorylated or unphosphorylated fluorescently labelled substrate peptide at the end of an enzymatic reaction. These different states of peptide are resolved by applying a potential difference across the sample. The presence of the charged phosphate group on the product (as opposed to the substrate) causes a different peptide mobility between the two peptides. This is visualized by excitation of the fluorescent label on the substrate and product peptides and represented as peaks within the analysis software.
(§3) In order to measure inhibitor activity of kinase inhibitors on this technology, a TTP Mosquito liquid handling instrument is used to place 0.25 ul of the appropriate concentration of inhibitor in 100% DMSO (for a dose response curve calculation) into each well of a 384-well plate. To this reaction components are added to a final volume of 25 ul. The table below indicates the sequences and concentrations for the assays described in this report. Standard components are 1 mM DTT (Sigma, D0632), 1 mM MgCl2 (Sigma, M1028), 100 mM HEPES pH 7.5 (Calbiochem, 391338), 0.015% Brij-35 (Sigma, B4184).
(§4) The reaction is incubated for 90 min at 25 C, and then stopped by the addition of 70 ul of Stop buffer (100 mM HEPES pH 7.5, 0.015% Brij-35, 10 mM EDTA (Sigma, E7889)).
(§5) The plate is read on a Caliper LC 3000 in an Off-Chip mobility shift assay format, on a 12-sipper chip. Unphosphorylated substrate and phosphorylated product peptide resolve as separate peaks allowing direct measurement of percentage of conversion of substrate to product. The percent conversion can be plotted against concentration of inhibitor to produce a sigmoidal dose response curve, from which an IC50 can be calculated using GeneData Condoseo or a similar product. Cellular activity assays

ZAP-70 = target: T2, ZAP-70 (Homo sapiens, UniProt P43403); assay: Zap70 enzymatic assay (Caliper LifeSciences technology)
T2 construct: purchased BPS Bioscience, CA, USA
T2 sequence (P43403 1-619): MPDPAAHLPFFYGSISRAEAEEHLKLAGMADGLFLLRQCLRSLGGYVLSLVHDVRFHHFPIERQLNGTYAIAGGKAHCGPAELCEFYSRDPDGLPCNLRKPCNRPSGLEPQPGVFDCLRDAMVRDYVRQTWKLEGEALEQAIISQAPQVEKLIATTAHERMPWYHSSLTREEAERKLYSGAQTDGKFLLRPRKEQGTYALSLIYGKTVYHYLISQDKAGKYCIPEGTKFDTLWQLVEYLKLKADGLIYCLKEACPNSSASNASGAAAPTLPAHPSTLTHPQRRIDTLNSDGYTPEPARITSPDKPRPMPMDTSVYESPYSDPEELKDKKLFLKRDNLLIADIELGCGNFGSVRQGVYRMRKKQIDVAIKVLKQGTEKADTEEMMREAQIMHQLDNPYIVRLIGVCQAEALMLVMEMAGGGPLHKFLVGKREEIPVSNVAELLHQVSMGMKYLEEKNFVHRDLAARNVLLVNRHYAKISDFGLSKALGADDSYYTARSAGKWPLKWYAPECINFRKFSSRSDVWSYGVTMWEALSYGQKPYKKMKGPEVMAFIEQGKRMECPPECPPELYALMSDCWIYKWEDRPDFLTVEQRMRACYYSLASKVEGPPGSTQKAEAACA
Description: as §1, §2, §3, §4, §5

KDR = target: T3, KDR (Homo sapiens, UniProt P35968); assay: KDR enzymatic assay (Caliper LifeSciences technology)
T3 construct: purchased BPS Bioscience, CA, USA
Description: as §1, §2, §3, §4, §5

Syk = target: T4, Syk (Homo sapiens, UniProt P43405); assay: Syk enzyme assay (flash plate / Caliper mobility shift)
T4 construct: purchased BPS Bioscience, CA, USA
Description: The kinase assay is performed either as 384-well Flashplate assay (for e.g. Topcount measurement) or as 384-well Image-Flashplate assay (for LEADseeker measurement).
2.5 nM SYK, 400 nM Biotin-Aha-Aha-[…] and 10 μM ATP (spiked with 0.3 μCi 33P-ATP/well) are incubated in a total volume of 50 μl (60 mM Hepes, 10 mM MgCl2, 1.2 mM Dithiothreitol, 0.02% Brij35, 0.1% BSA, pH 7.5) with or without test compound for 1 hours at 30° C. The reaction is stopped with 25 μl 200 mM EDTA. After 30 Min at 30° C. the liquid is removed and each well washed thrice with 100 μl 0.9% sodium chloride solution. Non-specific reaction is determined in presence of 0.1 μM Staurosporine. Radioactivity is measured with Topcount (when using Flashplates) or with LEADseeker (when using Image-Flashplates) respectively. Results (e.g. IC50-values) are calculated with program tools provided by the IT-department (e.g. Symyx Assay Explorer, Genedata Screener).
as §1, §2, §3, §4, §5

T3 sequence (P35968 20-1356): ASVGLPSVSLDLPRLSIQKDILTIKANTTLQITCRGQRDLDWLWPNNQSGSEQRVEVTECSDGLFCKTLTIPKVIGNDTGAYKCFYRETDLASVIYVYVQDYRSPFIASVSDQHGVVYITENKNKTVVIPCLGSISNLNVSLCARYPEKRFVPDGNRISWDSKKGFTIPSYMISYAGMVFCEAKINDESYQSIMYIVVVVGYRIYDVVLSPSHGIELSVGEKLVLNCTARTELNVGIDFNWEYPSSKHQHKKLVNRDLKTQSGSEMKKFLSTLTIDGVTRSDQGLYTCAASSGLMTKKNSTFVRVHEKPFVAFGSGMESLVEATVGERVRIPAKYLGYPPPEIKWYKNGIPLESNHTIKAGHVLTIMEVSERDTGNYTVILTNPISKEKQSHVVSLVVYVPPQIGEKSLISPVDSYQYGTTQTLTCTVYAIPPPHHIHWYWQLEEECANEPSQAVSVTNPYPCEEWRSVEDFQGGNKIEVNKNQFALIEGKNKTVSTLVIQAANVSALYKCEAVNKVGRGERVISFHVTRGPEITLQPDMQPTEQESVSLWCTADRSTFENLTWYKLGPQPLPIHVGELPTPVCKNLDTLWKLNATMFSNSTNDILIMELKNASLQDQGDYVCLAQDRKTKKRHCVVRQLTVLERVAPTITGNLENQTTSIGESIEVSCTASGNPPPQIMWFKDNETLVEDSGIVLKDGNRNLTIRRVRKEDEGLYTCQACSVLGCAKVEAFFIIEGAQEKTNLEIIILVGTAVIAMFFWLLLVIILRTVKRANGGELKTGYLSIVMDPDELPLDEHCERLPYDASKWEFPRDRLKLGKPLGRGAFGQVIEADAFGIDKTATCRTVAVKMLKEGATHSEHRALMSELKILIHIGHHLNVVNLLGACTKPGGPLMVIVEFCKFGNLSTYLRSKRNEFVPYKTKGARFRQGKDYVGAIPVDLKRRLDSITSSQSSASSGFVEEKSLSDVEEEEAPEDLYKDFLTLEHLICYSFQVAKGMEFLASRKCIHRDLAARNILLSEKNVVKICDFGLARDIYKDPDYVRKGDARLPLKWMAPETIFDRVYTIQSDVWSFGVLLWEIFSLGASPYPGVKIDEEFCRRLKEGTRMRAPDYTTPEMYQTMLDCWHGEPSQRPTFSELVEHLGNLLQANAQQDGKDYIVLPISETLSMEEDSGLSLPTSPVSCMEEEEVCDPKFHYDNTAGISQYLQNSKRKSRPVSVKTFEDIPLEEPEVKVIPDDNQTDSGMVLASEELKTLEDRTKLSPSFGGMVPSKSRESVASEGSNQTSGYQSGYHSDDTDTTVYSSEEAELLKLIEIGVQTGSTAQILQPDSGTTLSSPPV
T1 sequence (P12931 whole entry): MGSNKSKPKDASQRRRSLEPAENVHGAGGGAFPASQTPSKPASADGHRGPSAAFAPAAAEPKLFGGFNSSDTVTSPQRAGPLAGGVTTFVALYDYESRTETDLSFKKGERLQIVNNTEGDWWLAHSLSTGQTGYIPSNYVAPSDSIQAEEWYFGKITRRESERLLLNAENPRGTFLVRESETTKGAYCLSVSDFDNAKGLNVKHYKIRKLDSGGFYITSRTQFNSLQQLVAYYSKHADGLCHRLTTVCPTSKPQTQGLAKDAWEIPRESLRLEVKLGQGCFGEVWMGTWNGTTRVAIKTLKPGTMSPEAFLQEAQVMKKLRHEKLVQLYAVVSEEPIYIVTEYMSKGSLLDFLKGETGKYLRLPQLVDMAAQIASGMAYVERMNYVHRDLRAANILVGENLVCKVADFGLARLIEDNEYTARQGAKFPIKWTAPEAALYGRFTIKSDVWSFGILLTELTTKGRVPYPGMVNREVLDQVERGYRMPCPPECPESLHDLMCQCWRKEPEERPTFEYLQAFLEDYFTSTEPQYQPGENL

SMILES | IC50 (Src) | IC50 (ZAP-70) | IC50 (KDR) | IC50 (Syk)
COc1cc(Nc2nc3c(NCCCN4CCOCC4)nccn3n2)cc(OC)c1 [Example C39, N^2-(3,5-Dimethoxy-phenyl)-N^8-(3-morpholin-4-yl-propyl)-[1,2,4]triazolo[1,5-a]pyrazine-2,8-diamine] | 3 to 50 µM |  | 3 to 50 µM | 3 to 50 µM
Cc1cc(C)cc(Nc2nc3c(NCCCN4CCOCC4)nccn3n2)c1 [Example C28, N^2-(3,5-Dimethyl-phenyl)-N^8-(3-morpholin-4-yl-propyl)-[1,2,4]triazolo[1,5-a]pyrazine-2,8-diamine] | 3 to 50 µM |  | 0.3 to 3 µM | 3 to 50 µM
Cc1cccc(Nc2nc3c(NCCCN(C)C)nccn3n2)c1 [Example C46, N^8-(3-Dimethylamino-propyl)-N^2-m-tolyl-[1,2,4]triazolo[1,5-a]pyrazine-2,8-diamine] | 3 to 50 µM |  | 3 to 50 µM | 3 to 50 µM
FC(F)(F)c1cccc(Nc2nc3c(-c4cccnc4)nccn3n2)c1 [Example C20, (8-Pyridin-3-yl-[1,2,4]triazolo[1,5-a]pyrazin-2-yl)-(3-trifluoromethyl-phenyl)-amine] | 3 to 50 µM |  | 3 to 50 µM | 0.3 to 3 µM
COCCCNc1nccn2nc(Nc3cccc(C)c3)nc12 [Example C32, N^8-(3-Methoxy-propyl)-N^2-m-tolyl-[1,2,4]triazolo[1,5-a]pyrazine-2,8-diamine] | 3 to 50 µM | 3 to 50 µM | 3 to 50 µM | 3 to 50 µM
Cc1cc(C)cc(Nc2nc3c(-c4cccnc4)nccn3n2)c1 [Example C4, (3,5-Dimethyl-phenyl)-(8-pyridin-3-yl-[1,2,4]triazolo[1,5-a]pyrazin-2-yl)-amine] | 0.3 to 3 µM |  | 0.3 to 3 µM | 0.3 to 3 µM
COc1cc(Nc2nc3c(NCCCN(C)C)nccn3n2)cc(OC)c1 [Example C38, N^2-(3,5-Dimethoxy-phenyl)-N^8-(3-dimethylamino-propyl)-[1,2,4]triazolo[1,5-a]pyrazine-2,8-diamine] | 3 to 50 µM |  | 3 to 50 µM | 3 to 50 µM
COc1cc(Nc2nc3c(NCCCN4CCN(C)CC4)nccn3n2)cc(OC)c1 [Example C30, N^2-(3,5-Dimethoxy-phenyl)-N^8-[3-(4-methyl-piperazin-1-yl)-propyl]-[1,2,4]triazolo[1,5-a]pyrazine-2,8-diamine] | 3 to 50 µM |  | 3 to 50 µM | 3 to 50 µM
COc1cc(Nc2nc3c(NCCN)nccn3n2)cc(OC)c1 [Example C29, N^8-(2-Amino-ethyl)-N^2-(3,5-dimethoxy-phenyl)-[1,2,4]triazolo[1,5-a]pyrazine-2,8-diamine] | 3 to 50 µM |  | 3 to 50 µM | 3 to 50 µM
c1ccc(Nc2nc3c(-c4cccnc4)nccn3n2)cc1 [Example C22, Phenyl-(8-pyridin-3-yl-[1,2,4]triazolo[1,5-a]pyrazin-2-yl)-amine] | 3 to 50 µM |  | 0.3 to 3 µM | 3 to 50 µM
COc1cc(Nc2nc3c(Cl)nccn3n2)cc(OC)c1 [Example B2, 8-Chloro-[1,2,4]triazolo[1,5-a]pyrazin-2-yl-(3,5-dimethoxy-phenyl)-amine] | 3 to 50 µM |  |  | 3 to 50 µM
CN(C)CCCNc1nccn2nc(Nc3cccc(C(F)(F)F)c3)nc12 [Example C33, N^8-(3-Dimethylamino-propyl)-N^2-(3-trifluoromethyl-phenyl)-[1,2,4]triazolo[1,5-a]pyrazine-2,8-diamine] | 3 to 50 µM |  | 3 to 50 µM | 3 to 50 µM
Cc1cc(C)cc(Nc2nc3c(-c4ccc(N5CCOCC5)cc4)nccn3n2)c1 [Example C11, (3,5-Dimethyl-phenyl)-[8-(4-morpholin-4-yl-phenyl)-[1,2,4]triazolo[1,5-a]pyrazin-2-yl]-amine] | 3 to 50 µM |  | 3 to 50 µM | 3 to 50 µM
Cc1cc(C)cc(Nc2nc3c(Cl)nccn3n2)c1 [Example B1, 8-Chloro-[1,2, 4]triazolo[1,5-a]pyrazin-2-yl-(3,5-dimethyl-phenyl)-amine] |  | 0.3 to 3 µM | 3 to 50 µM | 3 to 50 µM
COCCCNc1nccn2nc(Nc3cc(OC)cc(OC)c3)nc12 [Example C40, N^2-(3,5-Dimethoxy-phenyl)-N^8-(3-methoxy-propyl)-[1,2,4]triazolo[1,5-a]pyrazine-2,8-diamine] | 3 to 50 µM |  | 3 to 50 µM | 3 to 50 µM

Next, values leading:

IC50 (Src) | IC50 (ZAP-70) | IC50 (KDR) | IC50 (Syk) | SMILES
0.3 to 3 µM | 3 to 50 µM | 0.3 to 3 µM | < 0.3 µM | COc1cc(Nc2nc3c(-c4cn[nH]c4)nccn3n2)cc(OC)c1 [Example C301, (3,5-Dimethoxy-phenyl)-[8-(1H-pyrazol-4-yl)-[1,2,4]triazolo[1,5-a]pyrazin-2-yl]-amine]
3 to 50 µM | 3 to 50 µM | 3 to 50 µM | 0.3 to 3 µM | COc1cc(Nc2nc3c(N4CCCC4c4ccccn4)nccn3n2)cc(OC)c1 (stereo not shown) [Example D21, (3,5-Dimethoxy-phenyl)-[8-(2-pyridin-2-yl-pyrrolidin-1-yl)-[1,2,4]triazolo[1,5-a]pyrazin-2-yl]-amine]
0.3 to 3 µM |  | 0.3 to 3 µM | < 0.3 µM | COc1cc(Nc2nc3c(-c4cccc(CN)c4)nccn3n2)cc(OC)c1 [Example C114, [8-(3-Aminomethyl-phenyl)-[1,2,4]triazolo[1,5-a]pyrazin-2-yl]-(3,5-dimethoxy-phenyl)-amine]
0.3 to 3 µM | 3 to 50 µM | 0.3 to 3 µM | < 0.3 µM | COc1cc(Nc2nc3c(-c4cnn(C)c4)nccn3n2)cc(OC)c1 [Example C300, (3,5-Dimethoxy-phenyl)-[8-(1-methyl-1H-pyrazol-4-yl)-[1,2,4]triazolo[1,5-a]pyrazin-2-yl]-amine]
0.3 to 3 µM | 3 to 50 µM |  | < 0.3 µM | COc1cc(Nc2nc3c(-c4ccc5cccnc5c4)nccn3n2)cc(OC)c1 [Example C264, (3,5-Dimethoxy-phenyl)-(8-quinolin-7-yl-[1,2,4]triazolo[1,5-a]pyrazin-2-yl)-amine]
0.3 to 3 µM |  | < 0.3 µM | < 0.3 µM | NC(=O)c1cccc(-c2nccn3nc(Nc4ccc(N5CCOCC5)cc4)nc23)c1 [Example C277, 3-[2-(4-Morpholin-4-yl-phenylamino)-[1,2,4]triazolo[1,5-a]pyrazin-8-yl]-benzamide]
0.3 to 3 µM |  | < 0.3 µM | < 0.3 µM | COc1cc(Nc2nc3c(-c4cccc(C(N)=O)c4)nccn3n2)cc(OC)c1 [Example C276, 3-[2-(3,5-Dimethoxy-phenylamino)-[1,2,4]triazolo[1,5-a]pyrazin-8-yl]-benzamide]
0.3 to 3 µM | 3 to 50 µM | 0.3 to 3 µM | < 0.3 µM | COc1cc(Nc2nc3c(-c4ccc(C(C)(C)C#N)cc4)nccn3n2)cc(OC)c1 [Example C256, 2-{4-[2-(3,5-Dimethoxy-phenylamino)-[1,2,4]triazolo[1,5-a]pyrazin-8-yl]-phenyl}-2-methyl-propionitrile]
